Results as given in the kinase profiling compilation of Christmann-Franck et al. (2016).

What was measured:
[1] = target: MAP3K7 (human) (UniProt O43318); experiment: radiometric filter-binding kinase assay
[2] = target: PRKD2 (human) (UniProt Q9BZL6); experiment: KINOMEscan competition binding; details: compound 1.0 µM
[3] = target: EPHB2 (human) (UniProt P29323); experiment: KINOMEscan competition binding; details: compound 1.0 µM
[4] = target: BRSK2 (human) (UniProt Q8IWQ3); experiment: KINOMEscan competition binding; details: compound 1.0 µM
[5] = target: RIPK2 (human) (UniProt O43353); experiment: KINOMEscan competition binding; details: compound 1.0 µM
[6] = target: TYK2 JH1 catalytic (human) (UniProt P29597); experiment: KINOMEscan competition binding; details: compound 1.0 µM
[7] = target: MAP4K5 (human) (UniProt Q9Y4K4); experiment: KINOMEscan competition binding; details: compound 1.0 µM
[8] = system: MET (human), P08581 [Y1235D]; experiment: KINOMEscan competition binding; details: compound 1.0 µM
[9] = target: VRK2 (human) (UniProt Q86Y07); experiment: KINOMEscan competition binding; details: compound 1.0 µM
VRK2 (human), sequence (Q86Y07 whole entry, looked up): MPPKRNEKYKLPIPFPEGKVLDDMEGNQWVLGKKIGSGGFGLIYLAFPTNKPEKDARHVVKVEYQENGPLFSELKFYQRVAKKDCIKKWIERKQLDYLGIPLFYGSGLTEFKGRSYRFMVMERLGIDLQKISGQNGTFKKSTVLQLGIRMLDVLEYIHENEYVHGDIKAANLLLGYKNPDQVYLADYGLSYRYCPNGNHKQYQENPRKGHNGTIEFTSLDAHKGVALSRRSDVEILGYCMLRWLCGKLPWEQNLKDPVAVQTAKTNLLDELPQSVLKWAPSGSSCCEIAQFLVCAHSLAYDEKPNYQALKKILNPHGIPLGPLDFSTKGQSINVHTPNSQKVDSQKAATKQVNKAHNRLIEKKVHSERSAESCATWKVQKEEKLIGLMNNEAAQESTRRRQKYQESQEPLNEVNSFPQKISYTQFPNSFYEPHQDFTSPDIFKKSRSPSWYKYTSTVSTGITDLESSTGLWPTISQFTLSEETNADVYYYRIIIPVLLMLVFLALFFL

[10] = target: EPHA3 (human) (UniProt P29320); experiment: KINOMEscan competition binding; details: compound 1.0 µM
[11] = system: PIK3CA (human), P42336 [M1043I]; experiment: KINOMEscan competition binding; details: compound 1.0 µM
[12] = target: CSNK1A1 (human) (UniProt P48729); experiment: KINOMEscan competition binding; details: compound 1.0 µM
[13] = target: TNIK (human) (UniProt Q9UKE5); experiment: KINOMEscan competition binding; details: compound 1.0 µM
[14] = target: NEK6 (human) (UniProt Q9HC98); experiment: KINOMEscan competition binding; details: compound 1.0 µM
[15] = target: CLK2 (human) (UniProt P49760); experiment: KINOMEscan competition binding; details: compound 1.0 µM
[16] = target: ACVRL1 (human) (UniProt P37023); experiment: KINOMEscan competition binding; details: compound 1.0 µM
[17] = target: RPS6KA1 KD1 (human) (UniProt Q15418); experiment: KINOMEscan competition binding; details: compound 1.0 µM
[18] = target: STK32C (human) (UniProt Q86UX6); experiment: KINOMEscan competition binding; details: compound 1.0 µM
STK32C (human), sequence (Q86UX6 whole entry, looked up): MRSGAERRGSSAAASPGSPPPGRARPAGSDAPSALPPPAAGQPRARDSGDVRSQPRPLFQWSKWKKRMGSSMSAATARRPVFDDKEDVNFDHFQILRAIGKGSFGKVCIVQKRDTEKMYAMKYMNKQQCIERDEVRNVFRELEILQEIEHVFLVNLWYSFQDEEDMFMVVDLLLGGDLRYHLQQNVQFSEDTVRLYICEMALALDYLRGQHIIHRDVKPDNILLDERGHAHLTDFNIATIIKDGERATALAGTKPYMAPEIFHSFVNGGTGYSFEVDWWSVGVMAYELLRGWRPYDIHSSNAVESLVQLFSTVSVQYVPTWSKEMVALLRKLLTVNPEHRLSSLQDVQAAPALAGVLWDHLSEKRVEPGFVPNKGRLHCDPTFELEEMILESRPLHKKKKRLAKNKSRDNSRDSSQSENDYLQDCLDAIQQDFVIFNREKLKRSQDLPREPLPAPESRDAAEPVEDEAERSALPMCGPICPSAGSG

[19] = target: DCLK3 (human) (UniProt Q9C098); experiment: KINOMEscan competition binding; details: compound 1.0 µM
DCLK3 (human), sequence (Q9C098 whole entry, looked up): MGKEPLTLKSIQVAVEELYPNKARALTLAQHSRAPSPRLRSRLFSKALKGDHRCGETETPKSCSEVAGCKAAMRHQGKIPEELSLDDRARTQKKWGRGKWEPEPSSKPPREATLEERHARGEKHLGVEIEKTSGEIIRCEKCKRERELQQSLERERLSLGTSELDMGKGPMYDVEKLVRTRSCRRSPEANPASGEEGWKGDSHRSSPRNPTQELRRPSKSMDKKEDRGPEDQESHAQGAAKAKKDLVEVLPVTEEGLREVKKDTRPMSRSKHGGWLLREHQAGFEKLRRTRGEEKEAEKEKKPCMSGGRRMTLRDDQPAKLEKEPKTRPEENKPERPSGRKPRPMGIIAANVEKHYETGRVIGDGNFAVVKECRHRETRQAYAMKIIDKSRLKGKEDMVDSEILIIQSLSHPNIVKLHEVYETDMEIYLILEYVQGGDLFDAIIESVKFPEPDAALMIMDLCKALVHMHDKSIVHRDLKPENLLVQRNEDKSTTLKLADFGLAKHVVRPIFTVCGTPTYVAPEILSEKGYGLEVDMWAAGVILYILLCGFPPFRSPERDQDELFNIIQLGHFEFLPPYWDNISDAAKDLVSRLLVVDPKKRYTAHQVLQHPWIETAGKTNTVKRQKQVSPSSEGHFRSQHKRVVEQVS

[20] = target: MAP3K15 (human) (UniProt Q6ZN16); experiment: KINOMEscan competition binding; details: compound 1.0 µM
MAP3K15 (human), sequence (Q6ZN16 whole entry, looked up): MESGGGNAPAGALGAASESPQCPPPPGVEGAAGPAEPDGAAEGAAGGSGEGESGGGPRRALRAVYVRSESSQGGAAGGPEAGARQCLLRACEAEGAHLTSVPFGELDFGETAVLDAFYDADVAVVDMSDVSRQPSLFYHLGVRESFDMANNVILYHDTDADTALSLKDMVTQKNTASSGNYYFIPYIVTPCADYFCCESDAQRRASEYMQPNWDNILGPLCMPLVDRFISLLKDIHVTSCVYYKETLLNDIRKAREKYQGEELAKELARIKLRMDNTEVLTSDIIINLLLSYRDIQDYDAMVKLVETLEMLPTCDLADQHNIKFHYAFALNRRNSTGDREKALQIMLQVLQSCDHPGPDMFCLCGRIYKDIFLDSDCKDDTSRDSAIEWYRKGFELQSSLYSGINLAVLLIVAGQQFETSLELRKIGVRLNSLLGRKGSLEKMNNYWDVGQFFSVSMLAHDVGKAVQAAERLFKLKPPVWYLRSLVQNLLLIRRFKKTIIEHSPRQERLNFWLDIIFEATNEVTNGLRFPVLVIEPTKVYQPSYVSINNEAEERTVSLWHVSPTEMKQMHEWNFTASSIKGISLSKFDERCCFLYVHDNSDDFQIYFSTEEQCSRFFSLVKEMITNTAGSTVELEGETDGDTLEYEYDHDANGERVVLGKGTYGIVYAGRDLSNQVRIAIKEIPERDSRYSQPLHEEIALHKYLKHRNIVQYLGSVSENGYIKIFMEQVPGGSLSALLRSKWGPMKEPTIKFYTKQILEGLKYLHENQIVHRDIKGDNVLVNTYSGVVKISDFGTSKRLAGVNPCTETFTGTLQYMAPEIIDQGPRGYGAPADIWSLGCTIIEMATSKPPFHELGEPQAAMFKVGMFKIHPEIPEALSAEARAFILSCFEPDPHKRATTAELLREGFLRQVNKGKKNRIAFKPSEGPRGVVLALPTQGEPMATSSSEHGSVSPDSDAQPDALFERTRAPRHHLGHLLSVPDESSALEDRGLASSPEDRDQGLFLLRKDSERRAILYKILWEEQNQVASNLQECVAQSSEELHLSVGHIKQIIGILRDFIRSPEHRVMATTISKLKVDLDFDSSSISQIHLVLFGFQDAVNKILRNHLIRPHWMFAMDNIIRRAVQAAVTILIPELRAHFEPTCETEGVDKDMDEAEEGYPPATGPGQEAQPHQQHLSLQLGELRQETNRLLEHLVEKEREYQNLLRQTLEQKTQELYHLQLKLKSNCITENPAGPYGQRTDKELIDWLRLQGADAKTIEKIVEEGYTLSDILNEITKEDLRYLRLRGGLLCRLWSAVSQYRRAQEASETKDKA

[21] = target: MAPK7 (human) (UniProt Q13164); experiment: KINOMEscan competition binding; details: compound 1.0 µM
[22] = target: SRC (human) (UniProt P12931); experiment: KINOMEscan competition binding; details: compound 1.0 µM
[23] = target: RPS6KA3 KD1 (human) (UniProt P51812); experiment: KINOMEscan competition binding; details: compound 1.0 µM
[24] = target: PDGFRB (human) (UniProt P09619); experiment: KINOMEscan competition binding; details: compound 1.0 µM
[25] = target: MAPK4 (human) (UniProt P31152); experiment: KINOMEscan competition binding; details: compound 1.0 µM
[26] = system: FLT3 (human), P36888 [N841I]; experiment: KINOMEscan competition binding; details: compound 1.0 µM
[27] = target: BRSK1 (human) (UniProt Q8TDC3); experiment: KINOMEscan competition binding; details: compound 1.0 µM
[28] = target: MAP3K2 (human) (UniProt Q9Y2U5); experiment: KINOMEscan competition binding; details: compound 1.0 µM
[29] = target: GSK3A (human) (UniProt P49840); experiment: KINOMEscan competition binding; details: compound 1.0 µM
[30] = target: PIK3C2G (human) (UniProt O75747); experiment: KINOMEscan competition binding; details: compound 1.0 µM
[31] = target: RIOK1 (human) (UniProt Q9BRS2); experiment: KINOMEscan competition binding; details: compound 1.0 µM
[32] = target: FGFR3 (human) (UniProt P22607); experiment: KINOMEscan competition binding; details: compound 1.0 µM
[33] = target: HIPK3 (human) (UniProt Q9H422); experiment: KINOMEscan competition binding; details: compound 1.0 µM
[34] = system: KIT (human), P10721 [D816H]; experiment: KINOMEscan competition binding; details: compound 1.0 µM
[35] = target: MAP2K1 (human) (UniProt Q02750); experiment: KINOMEscan competition binding; details: compound 1.0 µM
MAP2K1 (human), sequence (Q02750 whole entry, looked up): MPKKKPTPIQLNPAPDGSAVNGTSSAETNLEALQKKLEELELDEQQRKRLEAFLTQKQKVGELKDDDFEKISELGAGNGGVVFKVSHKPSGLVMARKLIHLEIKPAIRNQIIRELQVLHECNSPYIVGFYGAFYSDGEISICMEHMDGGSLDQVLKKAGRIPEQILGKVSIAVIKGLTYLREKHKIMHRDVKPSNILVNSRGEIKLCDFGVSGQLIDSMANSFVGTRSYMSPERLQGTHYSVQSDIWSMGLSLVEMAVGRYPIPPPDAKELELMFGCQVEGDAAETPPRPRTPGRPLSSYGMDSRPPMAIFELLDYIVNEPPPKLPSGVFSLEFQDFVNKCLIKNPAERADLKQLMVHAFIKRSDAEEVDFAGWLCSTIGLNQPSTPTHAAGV

[36] = target: PRKCE (human) (UniProt Q02156); experiment: KINOMEscan competition binding; details: compound 1.0 µM
[37] = target: PRKG1 (human) (UniProt Q13976); experiment: KINOMEscan competition binding; details: compound 1.0 µM
[38] = target: NEK3 (human) (UniProt P51956); experiment: KINOMEscan competition binding; details: compound 1.0 µM
[39] = target: PLK4 (human) (UniProt O00444); experiment: KINOMEscan competition binding; details: compound 1.0 µM
[40] = target: ANKK1 (human) (UniProt Q8NFD2); experiment: KINOMEscan competition binding; details: compound 1.0 µM
[41] = target: KIT (human) (UniProt P10721)

EPHB2 (human), sequence (P29323 whole entry, looked up): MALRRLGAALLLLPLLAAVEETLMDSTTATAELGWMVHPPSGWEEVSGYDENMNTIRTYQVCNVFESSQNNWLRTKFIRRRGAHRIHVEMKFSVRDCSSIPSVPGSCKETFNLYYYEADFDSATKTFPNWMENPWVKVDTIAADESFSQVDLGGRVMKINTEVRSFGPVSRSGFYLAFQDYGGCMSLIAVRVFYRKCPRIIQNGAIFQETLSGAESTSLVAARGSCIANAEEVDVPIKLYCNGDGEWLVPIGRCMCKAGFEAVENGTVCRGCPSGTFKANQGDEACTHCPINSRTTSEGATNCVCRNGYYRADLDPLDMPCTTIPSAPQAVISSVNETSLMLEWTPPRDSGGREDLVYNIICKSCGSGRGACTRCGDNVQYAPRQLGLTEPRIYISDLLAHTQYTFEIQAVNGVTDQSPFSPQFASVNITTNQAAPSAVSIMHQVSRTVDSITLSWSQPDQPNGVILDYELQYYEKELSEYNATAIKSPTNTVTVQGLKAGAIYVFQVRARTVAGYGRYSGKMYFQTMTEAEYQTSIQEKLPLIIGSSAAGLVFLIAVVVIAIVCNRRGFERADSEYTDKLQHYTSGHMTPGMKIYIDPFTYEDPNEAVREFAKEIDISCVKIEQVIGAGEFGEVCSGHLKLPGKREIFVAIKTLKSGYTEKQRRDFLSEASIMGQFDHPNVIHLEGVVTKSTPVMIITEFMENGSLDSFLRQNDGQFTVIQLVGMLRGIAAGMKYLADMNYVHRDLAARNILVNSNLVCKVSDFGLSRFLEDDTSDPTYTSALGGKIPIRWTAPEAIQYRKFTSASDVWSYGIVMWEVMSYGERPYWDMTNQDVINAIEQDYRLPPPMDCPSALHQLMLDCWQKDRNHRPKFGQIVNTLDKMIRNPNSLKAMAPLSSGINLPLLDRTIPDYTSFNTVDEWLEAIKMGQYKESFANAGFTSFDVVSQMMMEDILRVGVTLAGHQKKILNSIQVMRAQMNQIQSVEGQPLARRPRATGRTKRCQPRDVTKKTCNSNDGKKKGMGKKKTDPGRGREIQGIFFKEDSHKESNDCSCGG
MAP3K7 (human), sequence (O43318 whole entry, looked up): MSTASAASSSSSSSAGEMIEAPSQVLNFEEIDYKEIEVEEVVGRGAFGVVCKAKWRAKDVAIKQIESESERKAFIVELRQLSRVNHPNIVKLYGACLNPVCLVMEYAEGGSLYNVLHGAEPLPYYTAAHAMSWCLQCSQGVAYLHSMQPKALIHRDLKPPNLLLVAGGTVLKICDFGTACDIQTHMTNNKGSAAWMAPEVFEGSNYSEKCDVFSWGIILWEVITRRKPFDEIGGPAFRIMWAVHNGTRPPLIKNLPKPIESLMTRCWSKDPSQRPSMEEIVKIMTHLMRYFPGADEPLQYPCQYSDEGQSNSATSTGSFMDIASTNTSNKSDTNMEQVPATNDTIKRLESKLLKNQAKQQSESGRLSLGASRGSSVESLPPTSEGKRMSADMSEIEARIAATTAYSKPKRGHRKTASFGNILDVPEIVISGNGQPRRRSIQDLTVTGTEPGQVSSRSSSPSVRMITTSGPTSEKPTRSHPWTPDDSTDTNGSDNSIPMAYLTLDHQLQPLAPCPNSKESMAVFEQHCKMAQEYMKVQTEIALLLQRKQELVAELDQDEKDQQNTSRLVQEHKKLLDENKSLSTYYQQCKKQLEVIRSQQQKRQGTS

Cc1cc(NC(=O)c2cccc(NC(=O)/C=C/CN(C)C)c2)ccc1Nc1nccc(-c2cccnc2)n1
IC50 [1]: 7.72 µM | kinase still bound, per cent of control [2]: 100% | kinase still bound, per cent of control [3]: 100% | kinase still bound, per cent of control [4]: 99% | kinase still bound, per cent of control [5]: 99% | kinase still bound, per cent of control [6]: 96% | kinase still bound, per cent of control [7]: 100% | kinase still bound, per cent of control [8]: 100% | kinase still bound, per cent of control [9]: 97% | kinase still bound, per cent of control [10]: 67% | kinase still bound, per cent of control [11]: 94% | kinase still bound, per cent of control [12]: 73% | kinase still bound, per cent of control [13]: 56% | kinase still bound, per cent of control [14]: 100% | kinase still bound, per cent of control [15]: 95% | kinase still bound, per cent of control [16]: 96% | kinase still bound, per cent of control [17]: 99% | kinase still bound, per cent of control [18]: 95% | kinase still bound, per cent of control [19]: 100% | kinase still bound, per cent of control [20]: 82% | kinase still bound, per cent of control [21]: 100% | kinase still bound, per cent of control [22]: 87% | kinase still bound, per cent of control [23]: 100% | kinase still bound, per cent of control [24]: 4.7% | kinase still bound, per cent of control [25]: 81% | kinase still bound, per cent of control [26]: 93% | kinase still bound, per cent of control [27]: 100% | kinase still bound, per cent of control [28]: 100% | kinase still bound, per cent of control [29]: 92% | kinase still bound, per cent of control [30]: 81% | kinase still bound, per cent of control [31]: 100% | kinase still bound, per cent of control [32]: 100% | kinase still bound, per cent of control [33]: 100% | kinase still bound, per cent of control [34]: 68% | kinase still bound, per cent of control [35]: 94% | kinase still bound, per cent of control [36]: 81% | kinase still bound, per cent of control [37]: 72% | kinase still bound, per cent of control [38]: 73% | kinase still bound, per cent of control [39]: 58% | kinase still bound, per cent of control [40]: 75% | IC50 [41]: > 10 µM
